Measurements as given in the supplement of paper PMC11061612.

What was measured:
[1] = tested on: NCI-H2023 (Non-Small Cell Lung Carcinoma); assay: Bliss excess, mean over the matrix (fraction); higher = more synergy
Summary of the method: (§1)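 Bliss excess equals the observed combination effect minus the expected value EA + EB − EA·EB, where EA and EB are the effects of each agent alone. Combination Emax is the second-highest inhibition within the matrix. Inhibition was scaled from CellTiter-Glo 2.0 luminescence, with 0 set by vehicle wells and 1 by blank wells, after 72 hours of two-drug dosing of cells plated in 1536-well plates.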

[2] = tested on: MDA-MB-175-VII (Breast Carcinoma); assay: as above
Summary of the method: as §1

[3] = tested on: OCI-M1 (Acute Myeloid Leukemia); assay: as above
Summary of the method: as §1

[4] = tested on: ATN-1 (T-Lymphoblastic Leukemia); assay: as above
Summary of the method: as §1

NCI-H2452 (Mesothelioma) = assay: as above
Summary of the method: as §1

HT-144 (Melanoma) = assay: as above
Summary of the method: as §1

MG-63 (Osteosarcoma) = assay: as above
Summary of the method: as §1

[5] = tested on: NTERA-2-cl-D1 (Other Solid Carcinomas); assay: as above
Summary of the method: as §1

[6] = tested on: MDA-MB-175-VII (Breast Carcinoma); assay: combination Emax (second highest fraction inhibited in the dose matrix, 72 h); higher = more inhibition; extreme values may be limits of the assay
Summary of the method: as §1

[7] = tested on: HT-1197 (Bladder Carcinoma); assay: as above
Summary of the method: as §1

[8] = tested on: MRK-nu-1 (Breast Carcinoma); assay: as above
Summary of the method: as §1

[9] = tested on: L-363 (Plasma Cell Myeloma); assay: as above
Summary of the method: as §1

[10] = tested on: HT-3 (Cervical Carcinoma); assay: as above
Summary of the method: as §1

[11] = tested on: SUP-HD1 (Hodgkin's Lymphoma); assay: as above
Summary of the method: as §1

[12] = tested on: NCI-H1435 (Non-Small Cell Lung Carcinoma); assay: as above
Summary of the method: as §1

[13] = tested on: NCI-H2170 (Squamous Cell Lung Carcinoma); assay: as above
Summary of the method: as §1

[14] = tested on: KNS-62 (Squamous Cell Lung Carcinoma); assay: as above
Summary of the method: as §1

GCIY (Gastric Carcinoma) = assay: as above
Summary of the method: as §1

[15] = tested on: GRANTA-519 (B-Cell Non-Hodgkin's Lymphoma); assay: as above
Summary of the method: as §1

[16] = tested on: IGROV-1 (Ovarian Carcinoma); assay: as above
Summary of the method: as §1

CN(C)CCCOc1ccc(-c2ccc3ncc4c(c3c2)n(C2CCOCC2)c(=O)n4C)cn1 [AZD0156] + C=CCn1c(=O)c2cnc(Nc3ccc(N4CCN(C)CC4)cc3)nc2n1-c1cccc(C(C)(C)O)n1 [AZD1775] (first compound max 1 µM, partner max 1 µM)
Bliss excess [1]: 0.0007
Bliss excess [2]: -0.0589
Bliss excess [3]: 0.0077
Bliss excess [4]: 0.0198
Bliss excess (NCI-H2452 (Mesothelioma)): -0.0253
Bliss excess (HT-144 (Melanoma)): -0.0268
Bliss excess (MG-63 (Osteosarcoma)): -0.0428
Bliss excess [5]: -0.0807
combination Emax [6]: 0.299
combination Emax [7]: 0.486
combination Emax [8]: 0.246
combination Emax [9]: 0.985
combination Emax [10]: 0.331
combination Emax [11]: 0.836
combination Emax [12]: 0.193
combination Emax [13]: 0.7
combination Emax [14]: 0.185
combination Emax (GCIY (Gastric Carcinoma)): 0.63
combination Emax [15]: 0.816
combination Emax [16]: 0.769

C=CCn1c(=O)c2cnc(Nc3ccc(N4CCN(C)CC4)cc3)nc2n1-c1cccc(C(C)(C)O)n1 [AZD1775] + O=C(c1cc(Cc2n[nH]c(=O)c3ccccc23)ccc1F)N1CCN(C(=O)C2CC2)CC1 [Olaparib] (first compound max 1 µM, partner max 10 µM)
Bliss excess [1]: -0.039
Bliss excess [2]: -0.0351
Bliss excess [3]: -0.0374
Bliss excess [4]: -0.0189
Bliss excess (NCI-H2452 (Mesothelioma)): -0.0608
Bliss excess (HT-144 (Melanoma)): -0.0681
Bliss excess (MG-63 (Osteosarcoma)): -0.0548
Bliss excess [5]: 0.107
combination Emax [6]: 0.23
combination Emax [7]: 0.468
combination Emax [8]: 0.336
combination Emax [9]: 0.964
combination Emax [10]: 0.339
combination Emax [11]: 0.871
combination Emax [12]: 0.296
combination Emax [13]: 0.58
combination Emax [14]: 0.225
combination Emax (GCIY (Gastric Carcinoma)): 0.568
combination Emax [15]: 0.804
combination Emax [16]: 0.769

Cc1c2c(nn1C)CSCc1cc(n(C)n1)CSc1cc(c3ccccc3c1)OCCCc1c(C(=O)O)n(C)c3c-2c(Cl)ccc13 [AZD5991] + Cc1cc2ncnn2cc1Nc1ncc2c(n1)n(C1CCOCC1)c(=O)n2C [AZD7648] (first compound max 1 µM, 7x7, partner max 10 µM)
Bliss excess [1]: -0.0423
Bliss excess [2]: -0.0055
Bliss excess [3]: -0.001
Bliss excess [4]: -0.0513
Bliss excess (NCI-H2452 (Mesothelioma)): -0.0065
Bliss excess (HT-144 (Melanoma)): -0.0131
Bliss excess (MG-63 (Osteosarcoma)): -0.0265
Bliss excess [5]: -0.0697
combination Emax [6]: 0.263
combination Emax [7]: 0.267
combination Emax [8]: 1
combination Emax [9]: 1
combination Emax [10]: 0.353
combination Emax [11]: 0.576
combination Emax [12]: 0.211
combination Emax [13]: 0.397
combination Emax [14]: 0.277
combination Emax (GCIY (Gastric Carcinoma)): 0.526
combination Emax [15]: 0.214
combination Emax [16]: 0.625

COc1nnc2ccc(N3CCC(c4ccc(OCCN5CCN(C)C(=O)[C@H]5C)cc4)CC3)nn12 [AZD5153] + CCN(CCO)CCCOc1ccc2c(Nc3cc(CC(=O)Nc4cccc(F)c4)[nH]n3)ncnc2c1 [AZD2811] (first compound max 1 µM, 7x7, partner max 1 µM)
Bliss excess [1]: -0.0248
Bliss excess [2]: 0.0618
Bliss excess [3]: 0.06
Bliss excess [4]: -0.127
Bliss excess (NCI-H2452 (Mesothelioma)): -0.0574
Bliss excess (HT-144 (Melanoma)): 0.0216
Bliss excess (MG-63 (Osteosarcoma)): -0.037
Bliss excess [5]: -0.0385
combination Emax [6]: 0.509
combination Emax [7]: 0.742
combination Emax [8]: 0.561
combination Emax [9]: 0.589
combination Emax [10]: 0.332
combination Emax [11]: 0.704
combination Emax [12]: 0.339
combination Emax [13]: 0.717
combination Emax [14]: 0.596
combination Emax (GCIY (Gastric Carcinoma)): 0.63
combination Emax [15]: 0.56
combination Emax [16]: 0.618

CN(CCO)CC[C@H](CSc1ccccc1)Nc1ccc(S(=O)(=O)NC(=O)c2ccc(N3CCC([C@@H](O)c4ccccc4-c4ccc(Cl)cc4)CC3)cc2)cc1S(=O)(=O)C(F)(F)F [AZD4320] + CN(C)CCCOc1ccc(-c2ccc3ncc4c(c3c2)n(C2CCOCC2)c(=O)n4C)cn1 [AZD0156] (first compound max 1 µM, 7x7, partner max 1 µM)
Bliss excess [1]: -0.0922
Bliss excess [2]: -0.0322
Bliss excess [3]: -0.0094
Bliss excess [4]: -0.0231
Bliss excess (NCI-H2452 (Mesothelioma)): -0.0287
Bliss excess (HT-144 (Melanoma)): -0.0032
Bliss excess (MG-63 (Osteosarcoma)): -0.0816
Bliss excess [5]: -0.0692
combination Emax [6]: 0.224
combination Emax [7]: 0.142
combination Emax [8]: 0.164
combination Emax [9]: 0.263
combination Emax [10]: 0.143
combination Emax [11]: 0.961
combination Emax [12]: 0.651
combination Emax [13]: 0.613
combination Emax [14]: 0.125
combination Emax (GCIY (Gastric Carcinoma)): 0.554
combination Emax [15]: 0.934
combination Emax [16]: 0.611

CC(=O)c1c(C)c2cnc(Nc3ccc(N4CCNCC4)cn3)nc2n(C2CCCC2)c1=O [Palbociclib] + CC1(C)CCC(CN2CCN(c3ccc(C(=O)NS(=O)(=O)c4ccc(NCC5CCOCC5)c([N+](=O)[O-])c4)c(Oc4cnc5[nH]ccc5c4)c3)CC2)=C(c2ccc(Cl)cc2)C1 [Venetoclax] (first compound max 10 µM, 7x7, partner max 1 µM)
Bliss excess [1]: -0.0067
Bliss excess [2]: -0.0174
Bliss excess [3]: 0.007
Bliss excess [4]: 0.0869
Bliss excess (NCI-H2452 (Mesothelioma)): -0.0188
Bliss excess (HT-144 (Melanoma)): -0.0356
Bliss excess (MG-63 (Osteosarcoma)): 0.0196
Bliss excess [5]: -0.0389
combination Emax [6]: 0.171
combination Emax [7]: 0.16
combination Emax [8]: 0.37
combination Emax [9]: 0.208
combination Emax [10]: 0.116
combination Emax [11]: 0.758
combination Emax [12]: 0.132
combination Emax [13]: 0.362
combination Emax [14]: 0.268
combination Emax (GCIY (Gastric Carcinoma)): 0.17
combination Emax [15]: 0.541
combination Emax [16]: 0.537
